Measured values: the supplement of paper PMC6045584
± gives the standard deviation of the averaged measurements.

How the values were obtained:
[1] = compound: C=CC(=O)Nc1cc2c(Nc3ccc(F)c(Cl)c3)ncnc2cc1OCCCN1CCOCC1 [CANERTINIB]; assay: surviving fraction relative to DMSO-only wells; higher = less growth inhibition; details: exposure time: 5 days
Outline: (§1)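 Surviving fraction was calculated by normalising CellTiter-Glo luminescence to the median of DMSO-only wells. Tumour cell lines in log phase were seeded in 384-well plates at 250–500 cells per well, and 24 hours later were exposed continuously for five days to inhibitors at 0.5, 1, 5, 10, 50, 100, 500 and 1000 nM.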

[2] = compound: Cn1cc(C2=Nc3cc(NC(=O)C(N)C4CCCCC4)cc4c3C2=CNNC4=O)cn1; assay: as above; details: exposure time: 5 days
Outline: as §1

| Test System | surviving fraction ([1]; 0.5 nM) | surviving fraction ([1]; 1 nM) | surviving fraction ([1]; 5 nM) | surviving fraction ([1]; 10 nM) | surviving fraction ([1]; 50 nM) | surviving fraction ([1]; 100 nM) | surviving fraction ([1]; 500 nM) | surviving fraction ([1]; 1000 nM) | surviving fraction ([2]; 0.5 nM) | surviving fraction ([2]; 1 nM) | surviving fraction ([2]; 5 nM) | surviving fraction ([2]; 10 nM) | surviving fraction ([2]; 50 nM) | surviving fraction ([2]; 100 nM) | surviving fraction ([2]; 500 nM) | surviving fraction ([2]; 1000 nM) |
| --- | --- | --- | --- | --- | --- | --- | --- | --- | --- | --- | --- | --- | --- | --- | --- | --- |
| SUM149.B1*.S BREAST | 0.921 ± 0.016 | 0.941 ± 0.015 | 0.933 ± 0.026 | 0.917 ± 0.048 | 0.956 ± 0.028 | 0.972 ± 0.018 | 0.868 ± 0.055 | 0.805 ± 0.029 | 1.045 ± 0.0088 | 1.1 ± 0.025 | 1.01 ± 0.057 | 1.04 ± 0.033 | 1.03 ± 0.062 | 0.954 ± 0.03 | 0.377 ± 0.0042 | 0.225 ± 0.024 |
| MDAMB468 BREAST | 0.866 ± 0.035 | 0.837 ± 0.087 | 0.841 ± 0.087 | 0.777 ± 0.054 | 0.789 ± 0.068 | 0.72 ± 0.07 | 0.478 ± 0.029 | 0.382 ± 0.017 | 0.95 ± 0.0069 | 0.975 ± 0.067 | 0.984 ± 0.049 | 0.978 ± 0.031 | 0.858 ± 0.025 | 0.786 ± 0.11 | 0.151 ± 0.0051 | 0.0767 ± 0.0046 |
| RDES SOFT TISSUE | 0.774 ± 0.16 | 0.858 ± 0.12 | 0.707 ± 0.049 | 0.713 ± 0.19 | 0.903 ± 0.063 | 1.06 ± 0.14 | 1.09 ± 0.032 | 0.921 ± 0.21 | 1.12 ± 0.071 | 0.961 ± 0.14 | 0.953 ± 0.08 | 1.1 ± 0.21 | 0.776 ± 0.2 | 1.08 ± 0.39 | 0.0493 ± 0.0045 | 0.0827 ± 0.011 |
| HCT15 LARGE INTESTINE | 0.868 ± 0.082 | 0.78 ± 0.053 | 0.775 ± 0.11 | 0.79 ± 0.064 | 0.852 ± 0.035 | 0.869 ± 0.068 | 0.843 ± 0.079 | 0.841 ± 0.076 | 0.997 ± 0.079 | 1.05 ± 0.034 | 1.07 ± 0.0081 | 1.05 ± 0.037 | 1 ± 0.063 | 1.05 ± 0.045 | 1 ± 0.031 | 0.951 ± 0.028 |
| SKBR3 BREAST | 0.831 ± 0.019 | 0.79 ± 0.017 | 0.68 ± 0.051 | 0.6073 ± 0.0035 | 0.48 ± 0.025 | 0.4 ± 0.024 | 0.224 ± 0.0067 | 0.176 ± 0.0098 | 0.927 ± 0.058 | 0.948 ± 0.086 | 0.989 ± 0.088 | 1 ± 0.073 | 0.736 ± 0.056 | 0.459 ± 0.064 | 0.206 ± 0.011 | 0.224 ± 0.024 |
| ZR751 BREAST | 0.993 ± 0.042 | 0.957 ± 0.044 | 0.948 ± 0.052 | 0.957 ± 0.093 | 0.802 ± 0.026 | 0.77 ± 0.062 | 0.648 ± 0.052 | 0.618 ± 0.029 | 1.04 ± 0.079 | 1.03 ± 0.19 | 0.941 ± 0.13 | 0.908 ± 0.11 | 0.787 ± 0.032 | 0.69 ± 0.053 | 0.625 ± 0.044 | 0.555 ± 0.018 |
| H23 LUNG | 0.908 ± 0.038 | 0.86 ± 0.051 | 0.742 ± 0.031 | 0.553 ± 0.032 | 0.403 ± 0.035 | 0.3637 ± 0.0035 | 0.29 ± 0.011 | 0.252 ± 0.014 | 1.05 ± 0.052 | 1.07 ± 0.092 | 1.09 ± 0.046 | 1.074 ± 0.0038 | 1.11 ± 0.1 | 1.1 ± 0.096 | 1.02 ± 0.084 | 0.944 ± 0.031 |
| CME SYNOVIAL | 0.93 ± 0.083 | 0.969 ± 0.098 | 0.918 ± 0.065 | 0.888 ± 0.087 | 1.18 ± 0.034 | 1.2 ± 0.11 | 1.05 ± 0.033 | 0.876 ± 0.11 | 1.243 ± 0.0098 | 1.27 ± 0.03 | 1.3 ± 0.06 | 1.23 ± 0.059 | 1.13 ± 0.049 | 1.02 ± 0.065 | 0.733 ± 0.036 | 0.414 ± 0.0087 |
